# Source: patent US20070134349A1, “Methods of treating hematological malignancies” (DUKE UNIVERSITY, priority 2005, published 2007)
# Where two headings read alike, the source gives them in different places.
# Columns and labels:
# [1] = industrial solvent of which MAA is a metabolite; cited from earlier work
# [2] = in non-human primates; cited from earlier work
# [3] = tested on: ERK1/2; assay: Western blot of phospho-ERK1/2 in U-937 cells; type: cell-based; conditions: higher concentrations, 18 h, total ERK1/2 unaffected
# Description: (§1) Whole-cell lysates were prepared by washing the cells with PBS and resuspending them in 1 ml of lysis buffer (1× phosphate-buffered saline, 1 mM EDTA, 1.5 mg/ml of iodoacetamide, 100 μM sodium orthovanadate, 0.5% Triton X-100, 20 mM β-glycerolphosphate, 0.2 mM phenylmethylsulfonyl fluoride, and 1× complete protease inhibitor cocktail). After clarification by a 15-min centrifugation in a microcentrifuge at 4° C., the resulting supernatant was collected. 20-50 μg of protein extracts were separated on a 10% SDS-polyacrylamide gel and transferred to a nitrocellulose membrane. The membrane was blocked with 5% nonfat milk followed by incubation with antibodies. The immunocomplex was visualized by chemiluminescence.
# [4] = in rats; cited from earlier work
# [5] = tested on: NB4 cells; assay: Differentiation markers CD11c/CD11b by flow cytometry in NB4 cells; type: cell-based
# Description: (§2) NB4 cells were provided by Dr. Ronald Evans (Salk Institute, La Jolla, Calif.). NB4-R4 cells were provided by Dr. Wilson Miller (McGill University, Montreal, Canada). HL-60, U-937, and Kasumi-1 cells were obtained from the American Type Culture Collection (Rockville, Md.). NB4 and NB4-R4 cells were grown in RPMI medium 1640 containing 10% fetal bovine serum. U-937 cells were grown in RPMI medium 1640 containing 10 mM HEPES, 1 mM sodium pyruvate, 4.5 g/L glucose, and 10% fetal bovine serum. HL-60 cells were grown in Iscove's Modified Dulbecco's medium containing 20% fetal bovine serum. Kasumi-1 cells were grown in RPMI medium 1640 containing 10 mM HEPES, 1 mM sodium pyruvate, 4.5 g/L glucose, and 20% fetal bovine serum.
# (§3) To determine the percentage of cells that express differentiation markers, cells were washed once and resuspended in RPMI medium 1640 containing 3% fetal bovine serum. Phycoerythrin (PE)-conjugated CD11b, 5 Allophycocyanin (APC)-CD11c or control antibodies (BD Pharmingen, San Diego, Calif.) were added into cell suspension. After 30 minutes of incubation in the dark at 4° C., the cells were washed twice and resuspended in RPMI medium 1640 containing 7-amino actinomycin D (AAD) (for dead cell exclusion) and analyzed by FACScan (Becton Dickinson).
# [6] = tested on: Kasumi-1 cells; assay: CD11c expression by flow cytometry in Kasumi-1 cells; type: cell-based; conditions: 3 days
# Description: as §2, §3
# [7] = tested on: NB4 cells; assay: Apoptosis by Annexin V binding (flow cytometry) in NB4 cells; type: cell-based; conditions: MAA 5 mM alone, NB4 cells, 3 days
# Description: as §2
# (§4) To determine the percentage of cells that undergo apoptosis, after incubation with APC-CD11c antibody in the dark at 4° C., cells were washed twice with PBS and incubated at room temperature for 15 min with PE-conjugated Annexin-V (BD Pharmingen) and 7-AAD in binding buffer (10 mM HEPES, pH 7.4, 140 mM NaCI, 2.5 mM CaCl2) and analyzed by FACScan for CD11c expression and Annexin V binding. Apoptotic cells are those that stained positive for Annexin V and negative for 7-AAD.
# [8] = tested on: ERK1/2; assay: Western blot of phospho-ERK1/2 in NB4 cells; type: cell-based; conditions: 24 h
# Description: as §1
# [9] = tested on: U-937 cells; assay: CD11c expression by flow cytometry in U-937 cells; type: cell-based; conditions: lower concentrations, 3 days
# Description: as §2, §3
# [10] = tested on: U-937 cells; assay: Annexin V binding in U-937 cells; type: cell-based; conditions: higher concentrations, 3 days
# Description: as §2, §4
# [11] = cited from earlier work
# [12] = tested on: H3; assay: Western blot of acetyl-H3 and phospho-H3 in U-937 cells; type: cell-based; conditions: higher concentrations, 18 h
# Description: as §1
# [13] = tested on: RARE-TK-Luc reporter; assay: RARE-TK-Luc reporter transient transfection in NB4 cells; type: cell-based; conditions: MAA 5 mM, 19 h
# Description: Electroporation was performed using a Gene Pulser (BioRad, Hercules, Calif.) apparatus at 300 V and 960 μF capacity. […] Cells were harvested 19 h after transfection/treatment for luciferase and β-galactosidase activities.
# [14] = tested on: H3; assay: Western blot of phospho-H3 (Ser-10) in NB4 cells; type: cell-based; conditions: NB4 cells, 24 h
# Description: as §1
# [15] = in human; cited from earlier work
# [16] = tested on: C/EBPβ; assay: Western blot of phospho-C/EBPβ (Thr-235) and C/EBPβ in NB4 cells; type: cell-based
# Description: as §1
# [17] = tested on: histones H3 and H4; assay: Western blot of acetylated histones H3 and H4 in NB4 cells; type: cell-based
# Description: as §1
# [18] = tested on: HL-60 cells; assay: CD11c expression by flow cytometry in HL-60 cells; type: cell-based; conditions: 48 h
# Description: as §2, §3
# [19] = target: T1, PML-RARα (Homo sapiens, UniProt P10276+P29590); assay: Western blot of PML-RARα and RARα in NB4 cells; type: cell-based; conditions: 3 days
# T1 construct: PML portion (fusion partner, UniProt P29590); endogenous in cells; host or cells: NB4 cells
# T1 sequence (P29590+P10276 with tags, fused parts or gaps): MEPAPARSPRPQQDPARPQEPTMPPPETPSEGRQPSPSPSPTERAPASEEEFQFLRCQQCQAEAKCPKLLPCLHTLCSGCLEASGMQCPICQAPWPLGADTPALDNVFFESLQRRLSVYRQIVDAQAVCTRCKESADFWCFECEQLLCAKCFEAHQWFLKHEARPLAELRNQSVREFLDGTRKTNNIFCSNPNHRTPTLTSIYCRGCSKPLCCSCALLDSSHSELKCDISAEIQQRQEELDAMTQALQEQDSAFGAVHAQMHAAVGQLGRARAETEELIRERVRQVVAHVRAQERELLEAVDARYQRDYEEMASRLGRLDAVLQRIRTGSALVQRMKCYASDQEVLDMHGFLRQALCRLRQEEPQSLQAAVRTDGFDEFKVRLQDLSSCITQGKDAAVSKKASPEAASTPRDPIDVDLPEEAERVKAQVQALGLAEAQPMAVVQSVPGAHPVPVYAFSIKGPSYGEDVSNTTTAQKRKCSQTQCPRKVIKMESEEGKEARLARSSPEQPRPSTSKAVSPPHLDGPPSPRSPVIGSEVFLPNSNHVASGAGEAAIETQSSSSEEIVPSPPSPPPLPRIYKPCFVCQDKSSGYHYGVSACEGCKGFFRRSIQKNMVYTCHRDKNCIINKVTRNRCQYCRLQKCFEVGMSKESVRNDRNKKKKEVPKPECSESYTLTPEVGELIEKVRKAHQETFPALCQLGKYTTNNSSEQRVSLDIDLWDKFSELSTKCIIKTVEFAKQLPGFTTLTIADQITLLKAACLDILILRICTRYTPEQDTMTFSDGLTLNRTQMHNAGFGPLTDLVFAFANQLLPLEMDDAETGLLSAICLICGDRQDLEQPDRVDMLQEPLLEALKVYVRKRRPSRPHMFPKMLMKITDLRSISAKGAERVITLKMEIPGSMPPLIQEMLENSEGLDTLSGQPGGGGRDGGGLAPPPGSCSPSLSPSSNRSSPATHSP
# Description: as §1
# [20] = cited from earlier work; remark: listed apart in the source
structure (smiles),measurement,setting,value
COCCO [ethylene glycol monomethyl ether],developmental toxicity,[1],developmental toxicant
"COCC(=O)O [MAA, methoxyacetic acid]",elimination half-life,[2],20 h
same,activity of ERK1/2 (phospho-ERK1/2),[3],downregulate
same,elimination half-life,[4],13 to 18 h
same,percentage of cells expressing CD11c induced by ATO,"[5]; MAA 1 mM added to ATO 0.1 to 1 μM, NB4 cells, 3 days",significantly increases
same,percentage of cells expressing CD11b,"[5]; MAA 1 mM alone, NB4 cells, 24 h, from 26%",51%
same,expression of CD11c and CD11b,"[5]; MAA 5 mM alone, NB4 cells, 3 days",can induce expression
same,NB4 cell differentiation (CD11c),"[5]; MAA 5 mM, 21 h",can induce NB4 cell differentiation
same,percentage of cells expressing CD11c,"[5]; NB4 cells, 24 h, from 32%",41%
same,percentage of NB4 cells expressing the myeloid differentiation markers CD11c and CD11b,"[5]; NB4 cells, 3 days",comparable to ATRA
same,NB4 differentiation,"[5]; NB4 cells, FIG. 10",potent inducers
same,percentage of cells expressing CD11c,[6],increased
same,apoptosis (Annexin V),[7],does not induce significant amount of apoptosis
same,levels of phosphorylated ERK,"[8]; higher concentrations (no differentiating effects), total ERK not decreased",dramatically decreased
same,constitutive levels of phosphorylated ERK,[8]; lower concentrations,did not change
same,expression of the differentiation marker CD11c,[9],increasing expression
same,apoptosis (Annexin V),[10],inducing apoptosis
same,half-life in vivo,[11]; Shih et al 2001,long
same,H3 acetylation and phosphorylation,[12],increase
same,transcription of RARE-containing reporter gene (RARE-TK-Luc),[13],does not activate
same,H3 phosphorylation (Ser-10),[14]; higher concentrations,dramatically increased
same,H3 phosphorylation (Ser-10),[14]; lower concentrations,without effect
same,elimination half-life,[15],77.1 h
same,level of phosphorylated C/EBPβ at Thr-235,[16]; 17 h,dose-dependent increase
same,phosphorylation of C/EBPβ at Thr-235,"[16]; lower concentrations, 24 h",maximal phosphorylation
same,HDACI potency relative to BA,[17]; as shown in the applicant's study (histone acetylation),less potent HDACI than BA
same,H3 or H4 acetylation,"[17]; concentrations optimal for differentiation, NB4 cells, 24 h",no significant increase
same,H3 and H4 acetylation,"[17]; concentrations required for apoptosis, NB4 cells, 24 h",robust acetylation
same,differentiation as evidenced by expression of CD11c,[18],induce differentiation
same,degradation of RARα and accumulation of ΔPML-RARα,[19],not observed
same,expression level of PML-RARα fusion protein,[19],no effect
"CC(/C=C/C(=O)NO)=C\[C@@H](C)C(=O)c1ccc(N(C)C)cc1 [TSA, trichostatin A]",activity in vivo (anti-tumor),[20],does not exhibit significant activity
same,metabolism,[11]; in vivo,rapidly metabolized
